The data set in a line: Water uptake of norfloxacin and its formulations (FIG. 1). Format: physicochemical. The note with it: depending on manufacturing procedure (wet or dry granulation) and storage temperature and humidity. From the text: The water uptake for norfloxacin and its formulations may reach up to 30% and more depending on the manufacturing procedures (wet or dry granulation), and storage conditions of temperature and humidity (see FIG. 1).

Consider `CCn1cc(C(=O)O)c(=O)c2cc(F)c(N3CCNCC3)cc21` [norfloxacin], for which the water uptake is on record as ~30%.

The values are drawn from patent US20040224014A1, “Non-hygroscopic pharmaceutical compositions containing non-hydrated quinoline carboxylic acids” (The Jordanian pharmaceutical manufacturing Co., priority 2003, published 2004).
